The values that follow come from patent publication US20060269938A1, “Polynucleotides encoding insect plasma membrane ca2+ ATPase and uses thereof” (priority 2005, published 2006).

Assay [1] concerns PMCA. In words: pyruvate kinase/lactate dehydrogenase-coupled assay that measures ADP formation. In kind it is biochemical, Heliothis virescens. The following applies: fit to simple hyperbolic equation; decrease in absorbance at 340 nm; PMCA 0.20 mg/mL; FIG. 3; read-out: K1/2 for ATP, PMCA reaction rate. Here is the method: The PMCA reaction rate is dependent on the ATP concentration. The K1/2 for ATP was measured using a pyruvate kinase/lactate dehydrogenase-coupled assay that measures ADP formation. The final concentrations of PMCA and ATP were […]. The rates of decrease in absorbance at 340 nm were measured for each concentration of ATP. The line gives the fit to a simple hyperbolic equation with K1/2=0.013 mM and amplitude=0.022 OD/min. Vmax =50.0 nmol.min^−1.mg^−1. was obtained for PMCA activity under the conditions described.

In assay [2] the test system is recombinant Heliothis virescens PMCA. Description: PMCA activity assay, luciferase-luciferin luminescence measurement of remaining ATP. The assay is classed as biochemical. Here is the method: The assay for PMCA is based on the use of the luciferase-luciferin luminescence reaction to measure ATP. PMCA hydrolyzes ATP in the presence of Ca^2+and the ATP that remains is measured. Membrane vesicles from Sf9 cells expressing recombinant Heliothis virescens PMCA are provided with the assay.
The assay protocol is designed for a 384-well microtiter plate format, but other multi-well formats or other formats may also be used. The reaction is started by the addition of the PMCA enzyme. The negative control reactions contain eosin, an inhibitor of PMCA. Reaction mixtures are incubated at room temperature (22-24° C.) for 60 minutes, followed by the addition of the luciferase-luciferin mix. The plates are immediately read for luminescence.
The luciferin-luciferase readout measures the concentration of ATP in reaction mixtures. Light emission by the luciferase is proportional to the concentration of ATP when its value is less than 0.010 mM. PMCA consumes ATP in a Ca^2+-dependent hydrolysis reaction. […]
A volume of 0.005 mL of the HI solution increasing concentrations of eosin was placed in the wells of a 384-well microtiter plate, and a volume of 0.020 mL of the H2 solution was added. […] A volume of 0.035 mL of the H4 reaction mixture was then added to each well of the plate and the luminescence was measured. The decrease in relative light units (RLU) in reaction time t=60 minutes was measured. […]

As for `Nc1ncnc2c1ncn2[C@@H]1O[C@H](COP(=O)(O)OP(=O)(O)OP(=O)(O)O)[C@@H](O)[C@H]1O` [ATP], in assay [1], the Km came out at 13 µM.

For the compound `[Ca+2]` [Ca^2+], the “K1/2 for Ca2+, PMCA reaction rate” value in assay [2] (fit to simple hyperbolic equation, rates of decrease in RLU, ATP 0.010 mM, PMCA 0.010 mg/mL, FIG. 4) worked out at 1.5 µM.

For `O=C1OC2(c3ccccc31)c1cc(Br)c(O)c(Br)c1Oc1c2cc(Br)c(O)c1Br` [eosin, reference compound], the half-inhibitory concentration (IC50) (as a rule, the midpoint of a concentration-inhibition curve) in assay [2] (membrane vesicles from Sf9 cells, room temperature (22-24° C.), 60 minutes, FIG. 5, read-out: IC50 of inhibition of PMCA activity (rates of ATP consumption)) was 12 nM.
